Reference: patent publication US5132402A, “Adsorbent, method for production thereof, and method for use thereof” (Agency of Industrial Science and Technology, priority 1987, dated 1992)
Where a SMILES comes first, the peptide text is derived from it. Bridges are numbered along the chain shown (N, C = ends).

Assay: Solubility of the peptide in the phosphate buffer solution used for immobilization
Format: physicochemical
Conditions: phosphate buffer solution (0.02 mol/liter) of pH 7.4
Procedure: (a) The immobilization procedure of Example 2(a) was repeated, except that 20 mg of the peptide obtained in Synthesizing Example 18 was used in place of 20 mg of the peptide obtained in Synthesizing Example 2.

## CC(C)C[C@H](NC(=O)[C@H](Cc1ccc(O)cc1)NC(=O)[C@@H]1CCCN1C(=O)[C@@H](NC(=O)[C@H](CC(=O)O)NC(=O)[C@@H]1CCCN1C(=O)[C@@H]1CSSC[C@H](NC(=O)[C@@H](NC(=O)[C@H](Cc2ccc(O)cc2)NC(=O)[C@H](Cc2ccc(O)cc2)NC(=O)[C@@H](NC(=O)[C@H](Cc2c[nH]c3ccccc23)NC(=O)[C@H](Cc2c[nH]cn2)NC(=O)[C@H](CCCCN)NC(=O)[C@H](Cc2c[nH]c3ccccc23)NC(=O)CNC(=O)[C@H](CC(C)C)NC(=O)[C@@H](N)CC(C)C)C(C)C)[C@@H](C)O)C(=O)N1)[C@@H](C)O)C(=O)N[C@@H](CC(=O)O)C(=O)O [Synthesizing Example 18] (H-LLGWKHWVYYTCCPDTPYLD-OH; disulfide 12-13)
  solubility in the phosphate buffer solution: low solubility
